Measurements: patent US8361711B2, “Tools and methods useful in characterising the immunotoxic activity of xenobiotic substances” (National Institute of Public Health and the Environment, …, priority 2004, dated 2013)

What was measured:
[1] = tested on: IFN-γ fused to a stabile form of EGFP; assay: Clones with IFN-γ regulatory elements fused to a stabile form of EGFP; format: cell-based, mouse; details: all tested concentrations
Procedure: (§1) Samples were analyzed in an EPICS® XL-MCL Coulter flow cytometer with Expo v.2 Analysis Software/Expo32 Analysis Software (Applied Cytometry Systems, Sheffield, UK). or any other suitable flow cytometer. Viable and dead cells were gated separately and results were determined based on fluorescence associated with viable cells only. Regions were set in control cells and the same regions were used in induction controls and chemically challenged cells. Percent positive cells and fluorescence intensity were noted and used in further calculations.
(§2) Index numbers were calculated from the median fluorescence intensity of viable cells. Cells incubated in the absence or presence of ionomycin/PMA were analysed separately. Each clone incubated with or without ionomycin/PMA, but without further chemicals/compounds was defined as index number=1, and the index numbers for the other exposures were calculated from this.
(§3) One way ANOVAs (one way analysis of variance) were performed. In cases where normality failed, we used Kruskal-Wallis One Way Analysis of Variance on Ranks. If the differences between groups were statistically significant (p<0.05), we continued with tests for multiple comparisons. In normally distributed data we used Bonferroni t-test and multiple comparisons versus the control. The control was chosen to be the sample incubated in the presence or absence of ionomycin/PMA only. When normality failed we used […] for multiple comparisons versus the control.

[2] = tested on: cell lines developed in the project
Procedure: The basic cytotoxicty assay employed was LDH release. Several cytotoxicity assays were performed independently in two laboratories. […] In addition, the cytotoxicity associated with the solvent was also tested to eliminate the possibility of interference in the test outcome.
Cells were plated in 24 well microtiter plates at a density of 0.5×10^6 cells/mL and with a final volume of 1.5 mL/well. Two controls were included for each cell line, in each experiment.

[3] = tested on: IL-2 fused to a stabile form of EGFP; assay: Clones with IL-2 regulatory elements fused to a stabile form of EGFP; format: cell-based, mouse; details: all tested concentrations
Procedure: as §1, §2, §3

For `CC1(C)S[C@@H]2[C@H](NC(=O)Cc3ccccc3)C(=O)N2[C@H]1C(=O)[O-].[Na+]` [penicillin G, Penicillin G (Benzylpenicillin) sodium salt], the “IFN-γ expression, stabile EGFP clone” value ([1]; absence of ionomycin/PMA) was “failed to alter expression”, the “IFN-γ expression, stabile EGFP clone” value ([1]; presence of ionomycin/PMA) was “failed to alter expression” and the “toxicity (LDH-assay)” value [2] was “did not find penicillin G to be toxic”. For the same molecule, the “IL-2 expression, stabile EGFP clone” value ([3]; absence of ionomycin/PMA) was “failed to alter expression” and the “IL-2 expression, stabile EGFP clone” value ([3]; presence of ionomycin/PMA) was “failed to alter expression”.
